Measured values reported in patent US20230089368A1, “POLYAROMATIC UREA DERIVATIVES AND THEIR USE IN THE TREATMENT OF MUSCLE DISEASES” (ANAGENESIS BIOTECHNOLOGIES S.A.S., priority 2019, published 2023).

Key:
[1] = test system: satellite-like cells (Pax7-positive cells) in hMP; experiment: Myotube assay: Pax7-positive (satellite-like) cell quantification; assay type: cell-based, human; parameters: key to Pax7% (pool of Pax7-positive cells) / Pax7: −: Depletes the pool of cells, while positively affects the myotubes; +: Maintains or increases the pool of cells, with at least 1 of the highest concentration known to be cytotoxic; ++: Maintains or increases the pool of cells, without any toxicity; conditions: myotube assay, compounds incubated 3 days
Source text: (§1) The efficacy of said compound for use in treating, ameliorating, delaying, curing and/or preventing a disease or condition associated with muscle cells and/or satellite cells is positively correlated with the generation of myotubes (i.e. the increase of the area occupied by myotubes on the assay) and/or satellite cells (i.e. the increase of the number of satellite cells) in the assay after adding said compound. The generation of myotubes by the addition of said compound is expressed as the EC50 value, the concentration of said compound that corresponds with the half-maximal generation of myotubes, and the MA (normalized myotube area) value, the normalized area occupied by generated myotubes on the assay. […] Since muscle cells are formed from myotubes during myogenesis, the generation of myotubes in the assay is a good indicator of the ability of said compound to induce the formation of functional muscle cells in vivo. The number of satellite cells is measured as the percentage of Pax7 positive cells, relative to the total number of cells in the assay, as shown in FIG. 3. The percentage of Pax7 is a good indicator of the ability of said compound to induce the formation of satellite cells which are able to play a role in muscle repair and regeneration in vivo.
(§2) DMD human induced pluripotent stem cells (hereafter “DMD hiPSC”), generated from the NORM-1 hiPSC WT cell line by gene editing, or WT human induced pluripotent stem cells (hereafter “WT hiPSC”), being NORM-1 hiPSC wt cell line, have been differentiated according to Chal et al. 2015, 2016, to produce muscle progenitors (hereafter “hMP”). The hMP population contains satellite-like cells (i.e Pax7-positive cells) and satellite cells' progenies (i.e. Myogenin-positive cells).
(§3) FIG. 1 provides an example of a Myotube assay workflow. At day 0, hMP are thawed and 3.1 million cells are plated into a T75-flask coated with hESC-qualified Matrigel™ (Corning) in SkGM proliferating medium (PromoCells), supplemented with 5 μM Y-27632 (Tocris Bioscience). On day 2, SkGM proliferating medium is refreshed. On day 4, hMP are harvested and transferred into a 384-well plate coated with collagen type I at a density of 3500 cells/well in a DMEM-based medium, containing 5% of knockout serum replacement (Gibco), 1% PenStrep (Gibco), 1% MEM NEAA (Gibco) and 0.1 mM 2-mercaptoethanol (Gibco) (hereafter “K5 medium”) and 5 μM Y-27632. Compounds to be tested are then added in the medium and incubated for 3 days at 37° C. On day 7, cells are fixed and immunostained. For example, myotubes (alpha-actinin staining) and satellite-like (Pax7 staining) cells can be analyzed for total myotube area per well or Pax7-positive cell quantification.
(§4) DMD hMP were put in the Myotube assay according to the workflow described in Example 2.1. In particular, compound (i) was added at concentrations ranging from 1.5 nM to 30 μM, starting from day 4. hMP were cultivated for three more days in presence of compound (i), then fixed and analyzed for percentage of Pax7-positive cells and nuclei number. Duplicates of each condition were averaged.
(−): Depletes the pool of cells, while positively affects the myotubes; (+): Maintains or increases the pool of cells, with at least 1 of the highest concentration known to be cytotoxic; and (++) Maintains or increases the pool of cells, without any toxicity.

[2] = test system: muscle progenitors (hMP) from DMD hiPSC or WT hiPSC; experiment: Myotube assay: myogenic activity (total myotube area per well); assay type: cell-based, human; conditions: Homo sapiens, 72 h, myotube assay, compounds incubated 3 days; for Emax: read-out: MA (normalized Myotube Area, efficacy); for EC50: 10 points dose-response 1.5 nM to 30 μM, read-out: EC50 (myogenic activity, half-maximal generation of myotubes)
Protocol: An in vitro assay for assessing the efficacy of compounds for use in treating, ameliorating, delaying, curing and/or preventing a disease or condition associated with muscle cells and/or satellite cells is described in example 78. Herein, the generation of myotubes and satellite cells after adding a compound to a myotube assay workflow is assessed. Said myotube assay workflow is derived from wild-type or DMD human induced pluripotent stem cells (WT hiPSC or DMD hiPSC). Before the addition of said compound, the assay comprises satellite-like cells, but no significant amount of myotubes.
as §1, §2, §3
as §4, with “quantification” for “percentage”, “total myotube area per well.” for “Pax7-positive cells and nuclei number.”
Qualitative scale: ++++: EC50<500 nM; +++: 500 nM≤EC50<1000 nM; ++: 1000 nM≤EC50<5000 nM; +: EC50≥5000 nM; +++: MA≥75%; ++: 50%≤MA<75%; +: 25%≤MA<50%.

EC50 [2] | SMILES | Pax7% (pool of Pax7-positive cells) [1] | Emax [2]
 | Cc1cc(NC(=O)Nc2ccc(Oc3ccnc4[nH]c(=O)cnc34)cc2F)n(-c2ccccc2)n1 [(a), 1-(2-fluoro-4-((3-oxo-3,4-dihydropyrido[2,3-b]pyrazin-8-yl)oxy)phenyl)-3-(3-methyl-1-phenyl-1H-pyrazol-5-yl)urea] | ++ | 25 to 50%
1000 to 5000 nM | CNC(=O)c1cc(Oc2cccc(NC(=O)Nc3cc(C(C)(C)C)nn3-c3ccccc3)c2)ccn1 [(aa), 4-(3-(3-(3-(tert-butyl)-1-phenyl-1H-pyrazol-5-yl)ureido)phenoxy)-N-methylpicolinamide] | ++ | 50 to 75%
 | CNC(=O)c1ccc(Oc2cccc(NC(=O)Nc3cc(C(C)(C)C)nn3-c3ccccc3)c2)cn1 [(ab), 5-(3-(3-(3-(tert-butyl)-1-phenyl-1H-pyrazol-5-yl)ureido)phenoxy)-N-methylpicolinamide] | ++ | 50 to 75%
 | CC(C)(C)c1cc(NC(=O)Nc2ccc(Oc3ccccc3)cc2F)n(-c2ccccc2)n1 [(ac), 1-(3-(tert-butyl)-1-phenyl-1H-pyrazol-5-yl)-3-(2-fluoro-4-phenoxyphenyl)urea] | ++ | 50 to 75%
 | CC(C)(C)c1cc(NC(=O)Nc2ccc(Oc3ccncc3)cc2F)n(-c2ccccc2)n1 [(ad), 1-(3-(tert-butyl)-1-phenyl-1H-pyrazol-5-yl)-3-(2-fluoro-4-(pyridin-4-yloxy)phenyl)urea] | ++ | 25 to 50%
 | CC(=O)Nc1cc(Oc2ccc(NC(=O)Nc3cc(C(C)(C)C)nn3-c3ccccc3)c(F)c2)ccn1 [(ae), N-(4-(4-(3-(3-(tert-butyl)-1-phenyl-1H-pyrazol-5-yl)ureido)-3-fluorophenoxy)pyridin-2-yl)acetamide] | + | 50 to 75%
 | CC(C)(C)c1cc(NC(=O)Nc2ccc(Oc3ccc(F)cc3)cc2F)n(-c2ccccc2)n1 [(af), 1-(3-(tert-butyl)-1-phenyl-1H-pyrazol-5-yl)-3-(2-fluoro-4-(4-fluorophenoxy)phenyl)urea] | ++ | 25 to 50%
 | CNC(=O)c1cc(Oc2ccc(NC(=O)Nc3cc(C(C)(C)C)nn3-c3ccc4ncccc4c3)c(SC)c2)ccn1 [(ag), 4-(4-(3-(3-(tert-butyl)-1-(quinolin-6-yl)-1H-pyrazol-5-yl)ureido)-3-(methylthio)phenoxy)-N-methylpicolinamide] | ++ | ≥ 75%
 | CSc1cc(Oc2ccnc3[nH]c(=O)cnc23)ccc1NC(=O)Nc1ncc(C(C)(C)C)s1 [(ah), 1-(5-(tert-butyl)thiazol-2-yl)-3-(2-(methylthio)-4-((3-oxo-3,4-dihydropyrido[2,3-b]pyrazin-8-yl)oxy)phenyl)urea] | ++ | ≥ 75%
 | CNC(=O)c1cncc(Oc2ccc(NC(=O)Nc3cc(C(C)(C)C)nn3-c3ccccc3)c(SC)c2)c1 [(ai), 5-(4-(3-(3-(tert-butyl)-1-phenyl-1H-pyrazol-5-yl)ureido)-3-(methylthio)phenoxy)-N-methylnicotinamide] | ++ | 50 to 75%
500 to 1000 nM | COc1ccc(-n2nc(C(C)(C)C)cc2NC(=O)Nc2ccc(Oc3ccnc4[nH]c(=O)cnc34)cc2SC)cc1 [(aj), 1-(3-(tert-butyl)-1-(4-methoxyphenyl)-1H-pyrazol-5-yl)-3-(2-(methylthio)-4-((3-oxo-3,4-dihydropyrido[2,3-b]pyrazin-8-yl)oxy)phenyl)urea] | ++ | ≥ 75%
 | CC(C)(C)c1cc(NC(=O)Nc2ccc(Oc3ccnc4[nH]c(=O)cnc34)cc2Cl)n(-c2ccccc2)n1 [(ak), 1-(3-(tert-butyl)-1-phenyl-1H-pyrazol-5-yl)-3-(2-chloro-4-((3-oxo-3,4-dihydropyrido[2,3-b]pyrazin-8-yl)oxy)phenyl)urea] | + | ≥ 75%
 | Cc1cc(Oc2ccnc3[nH]c(=O)cnc23)ccc1NC(=O)Nc1cc(C(C)(C)C)nn1-c1ccccc1 [(al), 1-(3-(tert-butyl)-1-phenyl-1H-pyrazol-5-yl)-3-(2-methyl-4-((3-oxo-3,4-dihydropyrido[2,3-b]pyrazin-8-yl)oxy)phenyl)urea] | ++ | ≥ 75%
 | CCSc1cc(Oc2ccnc3[nH]c(=O)cnc23)ccc1NC(=O)Nc1cc(C(C)(C)C)nn1-c1ccccc1 [(am), 1-(3-(tert-butyl)-1-phenyl-1H-pyrazol-5-yl)-3-(2-(ethylthio)-4-((3-oxo-3,4-dihydropyrido[2,3-b]pyrazin-8-yl)oxy)phenyl)urea] | ++ | ≥ 75%
 | CSc1cc(Oc2ccnc3c2CCC(=O)N3)ccc1NC(=O)Nc1cc(C(C)(C)C)nn1-c1ccccc1 [(an), 1-(3-(tert-butyl)-1-phenyl-1H-pyrazol-5-yl)-3-(2-(methylthio)-4-((7-oxo-5,6,7,8-tetrahydro-1,8-naphthyridin-4-yl)oxy)phenyl)urea] | ++ | ≥ 75%
 | CSc1cc(Oc2ccnc3[nH]c(=O)cnc23)ccc1NC(=O)Nc1cc(C(C)(C)C)nn1-c1ccc(Cl)cc1 [(ao), 1-(3-(tert-butyl)-1-(4-chlorophenyl)-1H-pyrazol-5-yl)-3-(2-(methylthio)-4-((3-oxo-3,4-dihydropyrido[2,3-b]pyrazin-8-yl)oxy)phenyl)urea] | ++ | ≥ 75%
 | CNC(=O)c1ccc(Oc2ccc(NC(=O)Nc3cc(C(C)(C)C)nn3-c3ccccc3)c(SC)c2)cn1 [(ap), 5-(4-(3-(3-(tert-butyl)-1-phenyl-1H-pyrazol-5-yl)ureido)-3-(methylthio)phenoxy)-N-methylpicolinamide] | ++ | 25 to 50%
 | CSc1cc(Oc2ccnc(NC(C)=O)c2)ccc1NC(=O)Nc1cc(C(C)(C)C)nn1-c1ccccc1 [(aq), N-(4-(4-(3-(3-(tert-butyl)-1-phenyl-1H-pyrazol-5-yl)ureido)-3-(methylthio)phenoxy)pyridin-2-yl)acetamide] | + | ≥ 75%
 | CSc1cc(Oc2ccnc3[nH]c(=O)cnc23)ccc1NC(=O)Nc1cc(C(C)(C)C)nn1-c1ccccn1 [(ar), 1-(3-(tert-butyl)-1-(pyridin-2-yl)-1H-pyrazol-5-yl)-3-(2-(methylthio)-4-((3-oxo-3,4-dihydropyrido[2,3-b]pyrazin-8-yl)oxy)phenyl)urea] | ++ | ≥ 75%
 | CSc1cc(Oc2ccnc3[nH]c(=O)cnc23)ccc1NC(=O)Nc1cc(C(C)(C)C)nn1-c1cccc(Cl)c1 [(as), 1-(3-(tert-butyl)-1-(3-chlorophenyl)-1H-pyrazol-5-yl)-3-(2-(methylthio)-4-((3-oxo-3,4-dihydropyrido[2,3-b]pyrazin-8-yl)oxy)phenyl)urea] | + | ≥ 75%
